From patent US20240410831A1, “Multi-Mode Zinc-Selective Emission-Ratiometric Fluorescent Probes for Biological Application” (Georgia Tech Research Corporation, priority 2023, published 2024)

What was measured:
[1] = Fluorometric Zn(II) titration in PIPES buffer with DMPC:DMPG liposomes; type: physicochemical; conditions: pH 7.0 buffer, 100 μM liposomes, excitation at 405 nm
Method: To investigate the capability of Formula I, Formula II, and/or a derivative thereof (e.g., for example probe 8) as a dual-mode excitable Zn(II)-selective fluorescent indicator, fluorometric Zn(II)-titrations were performed with excitation at 405 nm. Comprehensive spectroscopic analysis of Formula I, Formula II, and/or a derivative thereof (e.g., for example probe 8) was performed in the presence of liposomes as a biological model-membranes composed of a 4:1 ratio of zwitterionic dimyristoyl […] (DMPC) and anionic dimyristoyl phosphatidylglycerol (DMPG). The probe was directly diluted from a DMSO stock solution into the pH 7.0 buffer containing 100 μM liposomes. […]
A solution of Formula I, Formula II, and/or a derivative thereof (e.g., for example probe 8) (10 μM) in analytical grade MeOH prepared in a quartz cuvette with a 1-cm pathlength was titrated with Zn(OTf)2 (from a 0.3 mM aqueous stock solution) in 1.0 μM (0.1 molar equiv.) increments. After each aliquot of Zn(II), the solution was equilibrated for 1 minute by magnetic stirring, and an absorbance (spectral window: 250-500 nm) and fluorescence spectrum (excitation at 395 nm, spectral window 405-705 nm) were acquired. […] After each aliquot of Zn(II), the solution was equilibrated for 1 minute by magnetic stirring, and a fluorescence spectrum (excitation: 405 nm, spectral window 420-700 nm) was acquired.

[2] = system: live mouse fibroblast 3T3 cells; assay: Ratiometric imaging of labile Zn(II) by laser confocal fluorescence microscopy (excitation at 405 nm); type: cell-based; conditions: for average fluorescence ratio R (BP2/BP1): confocal 405 nm
Method: With reference to FIG. 7B, ratiometric imaging of labile Zn(II) pools in live mouse fibroblast 3T3 cells with Formula I and/or Formula IA (e.g., for example probe 8) by TPEM (excitation at 405 nm). (A) of FIG. 7B Left: Intensities acquired with 520 nm-600 nm (BP2) and 440 nm-495 nm (BP1) bandpass filters respectively. Right: Intensity ratio imagines with R=BP2/BP1. (B) of FIG. 7B Left: Ratio images (BP2/BP1) before (prior to t=5 min) and after the addition of 50 μM ZnSO4 and 5.0 μM pyrithione. Addition of TPEN at t=15 min resulted the reversal of the initial fluorescence ratio change. (C) of FIG. 7B: Mean fluorescence ratio of the cytoplasmic region averaged over 10 cells (P values calculated for n=10 using a two-tailed test). (D) of FIG. 7B: Time course of the average ratio change for mean fluorescence ratio in the cytosol averaged over 10 cells.
To investigate whether Formula I, Formula II, and/or a derivative thereof (e.g., for example probe 8) may also be employed with one-photon excitation at 405 nm, the imagine experiment was repeated with a conventional confocal fluorescence microscope equipped with a 405 nm laser as the excitation source. […] The averaged fluorescence ratio indicated a uniform fractional saturation with an average ratio of R=0.57±0.04. […] The difference in fluorescence ratios is likely due to differences in the absorption cross sections for linear vs. non-linear excitation. In principle, the ratio response could be further tuned by adjusting the sensitivity of the bandpass detectors.
In various embodiments, mouse fibroblast (3T3) cells were grown on poly-L-lysine treated glass bottom culture dishes (MatTek) to 90% confluency in DMEM growth media supplemented with 10% bovine calf serum, and 1% penicillin-streptomycin. Before imaging, the media was replaced with pre-warmed colorless serum-free DMEM (1% penicillin-streptomycin, and 1% sodium pyruvate) containing 1.0 μM of probe 8. The cells were incubated at 37° C. under an atmosphere of humidified air containing 5% CO2 for 15 mins. The incubation solution was replaced with prewarmed colorless serum free DMEM. Images were acquired at 37° C., 8% humidity, and 5% CO2 using a Zeiss LSM NLO 710 microscope equipped with a femtosecond pulsed Ti:sapphire laser and a blue 405 nm laser. Scanning fluorescence micrographs were acquired with excitation at 405 nm or 750 nm and the emission was simultaneously collected with bandpass ranges of 495-440 nm (BP1) and 600-520 nm (BP2). Image J was used to evaluate the change in fluorescence emission ratio over time as previously described. The emission ratio for each region of interest was averaged at each time point.
TPEN solid was fully dissolved in anhydrous DMSO to a concentration of 3.0 mM. […]

- emission maximum ([1]; after Zn(II) addition): 515 nm
- emission maximum ([1]; free probe): 480 nm
SMILES: COc1ccc2c(c1)C(C)(C)c1nc(-c3cccc(CN(Cc4ncccn4)Cc4ncccn4)n3)sc1-2 [probe 8]
- cellular uptake ([2]; 3T3 cells, confocal): readily internalized
- average fluorescence ratio R (BP2/BP1) ([2]; after TPEN): 0.56±0.04
- average fluorescence ratio R (BP2/BP1) ([2]; after Zn(II) and ionophore pyrithione): 1.04±0.12
- average fluorescence ratio R (BP2/BP1) ([2]; basal): 0.57±0.04
